The results in this text go back to patent US20200277268A1, “PENTAFLUOROPHENYL SULFONAMIDE COMPOUNDS, COMPOSITIONS AND USES THEREOF” (DALRIADA THERAPEUTICS INC., priority 2017, published 2020).

Each structure is given as a SMILES string. pIC50: −log10 of the molar value. “Also recorded” adds a separate entry of the source.

The subject of data set [1] is OCI-AML3. The data set is described as follows: Cell viability, AML OCI-AML3. In kind it is cell-based. Conditions: Homo sapiens, OCI-AML-3, Table 4. The protocol:
(§1) The anti-cancer efficacy of exemplary compounds of the application were assessed in vitro against different cancer cell lines. Cell viability was examined following treatment at various concentrations of inhibitor (0.097656-50 μM) using a CellTiter-Blue® cell viability assay. 1×10^4 cells/well were plated in 96-well assay plates in culture medium. All cells were grown in DMEM, IMDM and RPMI-1640 supplemented with 10% fetal bovine serum (FBS). In some instances, FBS was removed for periods ranging from 16-24 hours, and re-introduced with test compound addition. After 24 hrs, test compounds and vehicle controls were added to appropriate wells such that the final volume was 100 μl in each well. The cells were cultured for the desired test exposure period (72 hours) at 37° C. and 5% CO2. The assay plates were removed from […] incubator and 20 μl/well of CellTiter-Blue® Reagent was added. The plates were incubated using standard cell culture conditions for 1-4 hours. Afterwards, the plates were shaken for 10 seconds and florescence was recorded at 560/590 nm using a Cytation 3 spectrophotometer. IC50 values were determined using non-linear regression analysis with GraphPad Prism 6.0 (GraphPad Software Inc.). […]

The subject of data set [2] is LN-18. The data set is described as follows: Cell viability, glioblastoma LN-18. In kind it is cell-based. Conditions: Homo sapiens, glioblastoma cell line. How it is done:
(§2) The anti-cancer efficacy of exemplary compounds of the application were assessed in vitro against different cancer cell lines. […] 1×10^4 cells/well were plated in 96-well assay plates in culture medium. […] In some instances, FBS was removed for periods ranging from 16-24 hours, and re-introduced with test compound addition. After 24 hrs, test compounds and vehicle controls were added to appropriate wells such that the final volume was 100 μl in each well. The cells were cultured for the desired test exposure period (72 hours) at 37° C. and 5% CO2. The assay plates were removed from […] incubator and 20 μl/well of CellTiter-Blue® Reagent was added. The plates were incubated using standard cell culture conditions for 1-4 hours. Afterwards, the plates were shaken for 10 seconds and florescence was recorded at 560/590 nm using a Cytation 3 spectrophotometer. IC50 values were determined using non-linear regression analysis with GraphPad Prism 6.0 (GraphPad Software Inc.).

Data set [3] in a line: Stability to glutathione, half-life by 19F NMR.
Data set [4] concerns MOLM14. Nature of the data set: Cell viability, AML MOLM14. It is filed as cell-based. The following applies: Homo sapiens, MOLM-14, Table 4. How it is done:
as §1

The subject of data set [5] is BSA, lysozyme, STAT3/5. Nature of the data set: 19F NMR screen against Cys-containing proteins. The following applies: 100 μM I-1, 2 hours at 37° C. It is filed as binding. The protocol: To assess potential reactivity of I-1 against Cys containing proteins, a series of ^19F NMR studies were conducted with BSA, lysozyme, STAT3, and STATS. […] All samples were prepared in 100 mM HEPES pH 7.4, and 100 μM 5-fluoro-Trp, with a final concentration of 10% D20 and 10% DMSO. The samples were incubated for 2 hours at 37° C. prior to data collection. All spectra were normalized and referenced according to the fluorine peak of 5-fluoro-Trp.

In data set [6] the test system is AR230. Nature of the data set: Cell viability, CML AR230. It is filed as cell-based. The following applies: Table 4. The protocol:
as §1

In data set [7] the test system is U118MG. Nature of the data set: Cell viability, glioblastoma U118MG. Conditions: Homo sapiens, U-118-MG; glioblastoma cell line. In kind it is cell-based. How it is done: as §2
Data set [8] has as its system UFMylation pathway (UBA5, UFC1, UFM1, c-Myc) in MV4-11 cells. The data set is described as follows: Western blot of UFMylation pathway in MV4-11 cells. In kind it is cell-based. The following applies: 8 hours. How it is done:
Post-treatment (8 hours) of MV4-11 cells with I-1 test compound at 1, 0.5, 0.25, 0.1 and 0 μM concentrations, all cells were lysed with radioimmunoprecipitation assay (RIPA) buffer: 20 mM Tris pH 7.4, 150 mM NaCl, 0.5% deoxycholate, 1% Triton X-100, 0.1% sodium dodecyl sulfate (SDS). Total protein was measured using BCA assay (Sigma). In each assay, clarified protein were resolved on a 4%-15% polyacrylamideSDS gel and transferred to a PVDF membrane (Bio-Rad). The membranes were blocked with 5% solution of skim milk powder in TBST and incubated for at least 1 hour followed by an overnight incubation at 4° C. in primary antibody (1:1000 dilution). Blots were probed with antibodies against UBA5, UFM1, UFC1, c-Myc, and beta-actin was used as a loading control (Santa Cruz Biotechnology catalog # sc-835). The PVDF membrane then washed with TBST (3 times for 5 minutes). A horseradish peroxides (HRP)-conjugated goat anti-mouse IgG secondary antibodies (Cell signaling Catalog #7076S) was applied to the membrane (1:5000 dilution) and incubated for 1 hour at room temperature. The blots were then rinsed again 3 times in TBST for 10 minutes. Bands were visualized using clarity western ECL substrate luminal/enhancer solution and peroxide solution 1:1 ratio for HRP secondary antibody, according to the manufacturer's instructions (Bio-Rad) and analyzed using Image lab software (Bio-Rad).

For data set [9], the target named is T1, UBA5 (Homo sapiens, UniProt Q9GZZ9).
T1 construct: Constructs of full length human UBA5 (1-404) were cloned into a pET28b(+) vector; His-SUMO (N, cleaved yes); made in house; host or cells: E. coli BL21 (DE3) RILP
The data set is described as follows: MS study of UBA5 covalent adduct. It is filed as binding. Conditions: 100 μM I-1, 50 μM UBA5. The protocol: To further characterize covalent modification of UBA5 by I-1, samples were incubated as 100 μM I-1 and 50 μM UBA5 (50 mM HEPES, pH 7.4) at 30° C. for 2 hours, followed by storage overnight at 4° C. prior to submission for LC-MS analysis.

T1 sequence (Q9GZZ9 whole entry): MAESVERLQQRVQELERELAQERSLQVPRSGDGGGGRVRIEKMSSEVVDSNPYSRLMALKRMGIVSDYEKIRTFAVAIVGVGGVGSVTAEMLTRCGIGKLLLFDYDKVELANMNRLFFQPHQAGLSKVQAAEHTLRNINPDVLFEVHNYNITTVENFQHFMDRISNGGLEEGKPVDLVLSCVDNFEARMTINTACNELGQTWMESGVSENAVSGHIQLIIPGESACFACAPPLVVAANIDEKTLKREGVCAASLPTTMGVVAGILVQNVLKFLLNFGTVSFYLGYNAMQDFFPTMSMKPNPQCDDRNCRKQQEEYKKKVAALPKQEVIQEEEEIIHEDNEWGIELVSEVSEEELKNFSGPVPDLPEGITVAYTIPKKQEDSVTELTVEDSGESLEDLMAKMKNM

`O=S(=O)(c1c(F)c(F)c(F)c(F)c1F)N(Cc1ccc(F)cc1)C1CC1` [Compound I-1, N-cyclopropyl-2,3,4,5,6-pentafluoro-N-(4-fluorobenzyl)benzenesulfonamide]: the pIC50 in data set [1] was 5.25; in data set [2], 5.31; in data set [4], 5.60 to 5.77; in [6], 5.39; in [7], 4.99. Further, the “increase in T1/2 as compared to Batabulin” value in data set [3] is reported as “greater than 7 fold”. Also, the “reactivity towards Cys-containing proteins (free fluoride release)” value in [5] was “no significant fluoride release; also recorded: unreactive”. The “concentration at which UFM1-UFC1 conjugate levels decrease” value in data set [8] is listed as at least 250 nM. For the same molecule, the “concentration at which c-Myc levels decrease” value in data set [8] was at least 250 nM. The “concentration giving complete wipe-out of UBA5 total protein” value in data set [8] is “greater than 500 nM”. For the same molecule, the “concentration giving reduction of UBA5 total protein levels” value in [8] turned out to be 250 nM. Besides, the “UBA5 covalent adduct formation by MS” value in data set [9] was “covalent adduct formation”.
